# Experimental data taken from patent publication US7517889B2, “2,6-substituted-4-monosubstitutedamino-pyrimidine as prostaglandin D2 receptor antagonists” (Aventis Pharmaceuticals, Inc., priority 2004, dated 2009).
# Structures can show the parent of a compound that is named as a salt.
# Target: T1, DP receptor (Homo sapiens, UniProt Q13258)
# T1 construct: the human cell line LS174T, which expresses the endogenous DP receptor; endogenous in cells; host or cells: LS174T human cell line
# T1 sequence (Q13258 1-359): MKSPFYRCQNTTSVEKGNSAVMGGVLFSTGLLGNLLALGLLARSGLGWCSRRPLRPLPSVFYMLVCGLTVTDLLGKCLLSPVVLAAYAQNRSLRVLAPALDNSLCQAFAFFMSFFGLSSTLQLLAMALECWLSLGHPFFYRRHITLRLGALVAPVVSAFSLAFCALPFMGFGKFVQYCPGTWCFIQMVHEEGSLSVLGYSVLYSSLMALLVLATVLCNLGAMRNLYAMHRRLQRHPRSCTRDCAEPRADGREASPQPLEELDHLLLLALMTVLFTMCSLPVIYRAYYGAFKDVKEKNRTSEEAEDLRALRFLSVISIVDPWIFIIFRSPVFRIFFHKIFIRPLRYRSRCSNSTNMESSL
# Experiment: SPA cAMP assay in human LS174 T cells (human DP functional assay)
# Assay type: cell-based
# Details: inhibition of PGD2 (15 nM final) stimulated cAMP, LS174T cells expressing endogenous DP receptor
# In short: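 LS174T cells with endogenous DP receptor, 45,000/well seeded overnight, exposed to compounds at 11 points for 15 min at 37 °C in buffer containing IBMX, with PGD2 stimulation.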
row,IC50,SMILES
1,149 nM,"COc1ccc(CCNc2cc(-c3ccc[n+]([O-])c3)nc(OC)n2)cc1 [Example 21(a), [2-Methoxy-6-(1-oxy-pyridin-3-yl)-pyrimidin-4-yl]-[2-(4-methoxy-phenyl)-ethyl]-amine]"
2,56 nM,"COc1ccc(CCNc2cc(-c3ccc(F)c(CNCCN(C)C)c3)nc(OC)n2)cc1 [Example 13(d), N-(2-Fluoro-5-{2-methoxy-6-[2-(4-methoxy-phenyl)-ethylamino]-pyrimidin-4-yl}-benzyl)-N′,N′-dimethyl-ethane-1,2-diamine hydrochloride]"
3,369 nM,"COc1nc(NCCc2ccc(OC)c(OC)c2)cc(-c2ccc(-c3ccccc3)cc2)n1 [Example 35(e), (6-Biphenyl-4-yl-2-methoxy-pyrimidin-4-yl)-[2-(3,4-dimethoxy-phenyl)-ethyl]-amine]"
4,5.1 nM,"COc1ccc(CCNc2cc(-c3cc4ccccc4s3)nc(OC)n2)cc1 [Example 10(g), (6-Benzo[b]thiophen-2-yl-2-methoxy-pyrimidin-4-yl)-[2-(4-methoxy-phenyl)-ethyl]-amine]"
5,1690 nM,"COc1cccc(-c2cc(NCCCc3ccccc3)nc(OC)n2)c1 [Example 43(l), [2-Methoxy-6-(3-methoxy-phenyl)-pyrimidin-4-yl]-(3-phenyl-propyl)-amine hydrochloride]"
6,< 1 nM,"COc1nc(NCCc2ccc(Cl)cc2Cl)cc(-c2cccc(C(C)(C)C(=O)Nc3nnn[nH]3)c2)n1 [Example 95(e), 2-(3-{6-[2-(2,4-Dichloro-phenyl)-ethylamino]-2-methoxy-pyrimidin-4-yl}-phenyl)-N-(1H-tetrazol-5-yl)-isobutyramide]"
7,2 nM,"COc1nc(NCCc2ccc(Cl)cc2Cl)cc(-c2cccc(C(C)(C)C(=O)NS(=O)(=O)Cc3ccccc3)c2)n1 [Example 95(b), N-[2-(3-{6-[2-(2,4-Dichloro-phenyl)-ethylamino]-2-methoxy-pyrimidin-4-yl}-phenyl)-2-methyl-propionyl]-C-phenyl-methanesulfonamide]"
8,10 nM,"COc1ccc(CCNc2cc(-c3cccnc3)nc(OC)n2)cc1 [Example 35(x), [2-methoxy-(6-pyridin-3-yl)-pyrimidin-4-yl]-[2-(4-methoxy-phenyl)-ethyl]-amine]"
9,2.4 nM,"COc1nc(NCCc2c(F)cccc2Cl)cc(-c2cccc(CO)c2)n1 [Example 9(d), (3-{6-[2-(2-chloro-6-fluoro-phenyl)-ethylamino]-2-methoxy-pyrimidin-4-yl}-phenyl)-methanol]"
10,104 nM,"COc1cccc(-c2cc(NCCc3c[nH]c4cc(OC)ccc34)nc(OC)n2)c1 [Example 43(g), [2-(6-Methoxy-1H-indol-3-yl)-ethyl]-[2-methoxy-6-(3-methoxy-phenyl)-pyrimidin-4-yl]-amine hydrochloride]"
11,0.6 nM,"COc1nc(NCCc2ccc(Cl)cc2)cc(-c2cccc(C(=O)O)c2)n1 [Example 35(n), 3-{6-[2-(4-chlorophenyl)-ethylamino]-2-methoxy-pyrimidin-4-yl}-benzoic acid hydrochloride]"
12,2.9 nM,"COc1ccc(CCNc2cc(-c3cccc(S(N)(=O)=O)c3)nc(OC)n2)cc1 [Example 3, 3-{2-Methoxy-6-[2-(4-methoxy-phenyl)-ethylamino]-pyrimidin-4-yl}-benzenesulfonamide]"
13,393 nM,"COc1nc(NCc2ccsc2)cc(-c2cccc(C(C)(C)C(=O)O)c2)n1 [Example 71, 2-(3-{2-Methoxy-6-[(thiophen-3-ylmethyl)-amino]-pyrimidin-4-yl}-phenyl)-2-methyl-propionic acid]"
14,1070 nM,"COc1ccc(CNc2cc(-c3cccc(OC)c3)nc(OC)n2)cc1 [Example 43(k), (4-Methoxy-benzyl-[2-methoxy-6-(3-methoxy-phenyl)-pyrimidin-4-yl]-amine hydrochloride]"
15,3.1 nM,"COc1nc(NCCc2ccc(OC(F)(F)F)cc2)cc(-c2ccc3c(c2)CC(C(=O)O)O3)n1 (stereo not shown) [Example 88, 5-{2-Methoxy-6-[2-(4-trifluoromethoxy-phenyl)-ethylamino]-pyrimidin-4-yl}-2,3-dihydro-benzofuran-2-carboxylic acid hydrochloride]"
16,6.3 nM,"COc1ccc(CCNc2cc(-c3ccc(C(C)=O)cc3)nc(OC)n2)cc1 [Example 10(h), 1-(4-{2-Methoxy-6-[2-(4-methoxy-phenyl)-ethylamino]-pyrimidin-4-yl}-phenyl)-ethanone]"

row,IC50,SMILES
1,0.3 nM,"COc1nc(NCCc2ccc(Cl)cc2Cl)cc(-c2cccc(C(C)(C)C(=O)O)c2)n1 [Example 15(d), 2-(3-{6-[2-(2,4-Dichloro-phenyl)-ethylamino]-2-methoxy-pyrimidin-4-yl}-phenyl)-2-methyl-propionic acid hydrochloride]"
2,0.7 nM,"COc1ccc(CCNc2cc(-c3cnc4ccccc4c3)nc(OC)n2)cc1 [Example 10(b), [2-(4-Methoxy-phenyl)-ethyl]-(2-methoxy-6-quinolin-3-yl-pyrimidin-4-yl)-amine]"
3,0.5 nM,"COc1nc(NCCc2ccc(Cl)cc2Cl)cc(-c2cc(C(C)(C)C(=O)O)ccc2F)n1 [Example 99, 2-(3-{6-[2-(2,4-Dichloro-phenyl)-ethylamino]-2-methoxy-pyrimidin-4-yl}-4-fluoro-phenyl)-2-methyl-propionic acid hydrochloride]"
4,212 nM,"COc1nc(NCCc2ccc3c(c2)OC(F)(F)O3)cc(-c2cccnc2)n1 [Example 46(b), [2-(2,2-difluoro-benzo[1,3]dioxol-5-yl)-ethyl]-(2-methoxy-6-pyridin-3-yl-pyrimidin-4-yl)-amine]"
5,3.8 nM,"COc1ccc(CCNc2cc(-c3ccc(C(C)=O)s3)nc(OC)n2)cc1 [Example 35(m), 1-(5-{2-Methoxy-6-[2-(4-methoxy-phenyl)-ethylamino]-pyrimidin-4-yl}-thiophen-2-yl)-ethanone]"
6,0.5 nM,"COc1nc(NCCc2ccc(Cl)cc2Cl)cc(-c2cccc(C3(C(=O)O)CCCC3)c2)n1 [Example 74, 1-(3-{6-[2-(2,4-Dichloro-phenyl)-ethylamino]-2-methoxy-pyrimidin-4-yl}-phenyl)-cyclopentanecarboxylic acid hydrochloride]"
7,6 nM,"COc1ccc(CCNc2cc(-c3cccc(-c4cc(C)no4)c3)nc(OC)n2)cc1 [Example 38, {2-Methoxy-6-[3-(3-methyl-isoxazol-5-yl)-phenyl]-pyrimidin-4-yl}-[2-(4-methoxy-phenyl)-ethyl]-amine]"
8,5 nM,"COc1nc(NCCc2ccc(Cl)cc2Cl)cc(N2CCCC(c3nn[nH]n3)C2)n1 (stereo not shown) [Example 96, [2-(2,4-Dichloro-phenyl)-ethyl]-{2-methoxy-6-[3-(2H-tetrazol-5-yl)-piperidin-1-yl]-pyrimidin-4-yl}-amine]"
9,18 nM,"COc1nc(NCCc2ccc(Cl)cc2Cl)cc(-c2cccc(C(C)(C)C(=O)OCC(O)CO)c2)n1 (stereo not shown) [Example 89, 2-(3-{6-[2-(2,4-Dichloro-phenyl)-ethylamino]-2-methoxy-pyrimidin-4-yl}-phenyl)-2-methyl-propionic acid 2,3-dihydroxy-propyl ester]"
10,0.1 nM,"COc1ccc(CCNc2cc(-c3cccc(Cc4nnn[nH]4)c3)nc(OC)n2)cc1 [Example 24(b), [2-(4-Methoxy-phenyl)-ethyl]-{2-methoxy-6-[3-(1H-tetrazol-5-ylmethyl)-phenyl]-pyrimidin-4-yl}-amine hydrochloride]"
11,9.7 nM,"COc1cccc(-c2cc(NCCc3cccs3)nc(OC)n2)c1 [Example 43(e), [2-Methoxy-6-(3-methoxy-phenyl)-pyrimidin-4-yl]-(2-thiophen-2-yl-ethyl)-amine hydrochloride]"
12,0.05 nM,"COc1nc(NCCc2ccc(Cl)cc2Cl)cc(-c2cccc(C3(C(=O)O)CCOCC3)c2)n1 [Example 80(a), 4-(3-{6-[2-(2,4-Dichloro-phenyl)-ethylamino]-2-methoxy-pyrimidin-4-yl}-phenyl)-tetrahydro-pyran-4-carboxylic acid]"
13,11 nM,"COc1ccc(CCNc2cc(-c3ccc(C(F)F)s3)nc(OC)n2)cc1 [Example 12, [6-(5-Difluoromethyl-thiophen-2-yl)-2-methoxy-pyrimidin-4-yl]-[2-(4-methoxy-phenyl)-ethyl]-amine]"
14,0.9 nM,"COc1ccc(CCNc2cc(-c3cccc(C#N)c3)nc(OC)n2)cc1 [Example 35(t), 3-{2-Methoxy-6-[2-(4-methoxy-phenyl)-ethylamino]-pyrimidin-4-yl}-benzonitrile]"
15,0.4 nM,"COc1nc(NCCc2ccc(OC)c(F)c2)cc(-c2cccc(-c3nn[nH]n3)c2)n1 [Example 40, [2-(3-Fluoro-4-methoxy-phenyl)-ethyl]-{2-methoxy-6-[3-(2H-tetrazol-5-yl)-phenyl]-pyrimidin-4-yl}-amine]"

row,SMILES,IC50
1,"CCOC(=O)c1cc(-c2cc(NCCc3ccc(OC)cc3)nc(OC)n2)ccc1Cl [Example 35(z), 2-Chloro-5-{2-methoxy-6-[2-(4-methoxy-phenyl)-ethylamino]-pyrimidin-4-yl}-benzoic acid ethyl ester]",32 nM
2,"COc1cccc(-c2cc(NCCc3ccc([N+](=O)[O-])cc3)nc(OC)n2)c1 [Example 43(b), [2-Methoxy-6-(3-methoxy-phenyl)-pyrimidin-4-yl]-[2-(4-nitro-phenyl)-ethyl]-amine]",0.9 nM
3,"COc1ccc(CCNc2cc(-c3ccc4ncccc4c3)nc(OC)n2)cc1 [Example 10(a), [2-(4-Methoxy-phenyl)-ethyl]-(2-methoxy-6-quinolin-6-yl-pyrimidin-4-yl)-amine]",0.6 nM
